Measurements as given in article PMC6222706, “Evaluation of the Antioxidant and Neuroprotectant Activities of New Asymmetrical 1,3-Diketones” (Molecules : A Journal of Synthetic Chemistry and Natural …, 2018).

Experiments:
[1] = DPPH radical scavenging assay; assay type: biochemical; conditions: antioxidant concentration that decreases initial DPPH^• concentration by 50%; 30 min, 517 nm
Experimental: The assay was performed in a 96-well microplate. A 0.2 mM solution of 2,2-diphenyl-1-picryl-hydrazyl-hydrate (DPPH) in ethanol was prepared. All the compounds tested were dissolved in EtOH. Firstly, 150 µL of each compound solution was added to the wells of the 96-well plate, followed by the addition of 50 µL of the DPPH solution. Final compound concentrations tested were 0, 5, 10, 20, 50, 100, 150, 200 µM. The change in absorbance at 517 nm was measured after 30 min incubation in the dark. The free radical scavenging activity was calculated as inhibition using the following Equation (2): Percentage DPPH radical scavenging activity = {1 − [As/Ac]} × 100(2) where As is the absorbance of the DPPH solution containing samples and Ac the absorbance of the control solution without antioxidant but with DPPH. The percentages of DPPH reduced were plotted against compound concentration. The experiment was also conducted using Trolox as reference antioxidant. Assays were performed three times by quadruplicate for each compound.

[2] = Cytotoxicity in SH-SY5Y cells (MTT); assay type: cell-based; conditions: human, SH-SY5Y neuronal cells, concentration reducing cell viability to 50% of control
Experimental: So, to study the neuroprotectant potential of β-diketones in the SH-SY5Y cell line, we firstly need to determine their cytotoxicity in the same cellular model. […] In addition to that, within each series, the introduction of a second fluorine atom in the left-hand side phenyl ring decreases also the cytotoxicity.
SH-SY5Y cells were seeded into 96-well plates at a density of 5 × 10^3 cells/well and grown in the incubator for 24 h. All compounds tested were dissolved and eventually further diluted in dimethylsulfoxide (DMSO). After overnight incubation, the cells were treated with different test concentrations (5, 10, 20, 50, 100, 150, 200 µM) in a final volume of 200 µL with four replicates each. […] Cell proliferation or viability was measured using the 3-(4,5-dimethylthiazol-2-yl)-2,5-diphenyl tetrazolium bromide (MTT) assay. After 24 h, 20 µL of MTT (5 mg/mL) was added to each well and the plate was incubated at 37 °C in the dark for 2 h. Supernatants were removed and the formazan crystals were solubilized in DMSO (200 µL/well), under 10 min shaking at room temperature. The reduction of MTT was quantified by absorbance at 570 nm Varioskan microplate reader (Thermo Fisher Scientific, Vantaa, Finland). Effects of the test compounds on cell viability were calculated using cells treated with vehicle as control. The data were subjected to linear regression analysis and the regression lines were plotted for the best fit. The IC50 (inhibition of cell viability) concentrations were calculated using the respective dose-response curves.

[3] = ABTS radical scavenging assay; assay type: biochemical; conditions: for IC50: 30 min incubation, EtOH, absorbance at 734 nm; for ABTS-TEAC100: Trolox Equivalent Antioxidant Capacity vs 100 µM solution of the substance, from ABTS assay
Experimental: ABTS^+ radical was produced by reacting 2,2′-azino-bis-3-ethylbenzthiazoline-6-sulphonic acid (ABTS) 7 mM with K2S2O8 2.45 mM, both reactants dissolved in water, and at the volume ratio of 1:1. The mixture was stored in the dark at room temperature for 16 h. The ABTS^+ solution was diluted to give an absorbance of 0.750 ± 0.025 at 734 nm in EtOH. All the compounds tested were dissolved in EtOH. 150 µL of each compound solution was added to the wells of the 96-well plate, followed by the addition of 50 µL of the ABTS^+ radical solution. Final compound concentrations tested were 0, 5, 10, 20, 50, 100, 150, 200 µM. The absorbance change at 734 nm was recorded after 30 min incubation in the dark, and the percentage of radical scavenging was calculated for each concentration relative to a blank containing no scavenger. The degree of decolorization was calculated as the percentage reduction of absorbance. The ABTS^+ radical scavenging activity was calculated as follows: Percentage ABTS^+ radical scavenging activity = {1 − [As/Ac]} × 100(1) where As is the absorbance of the ABTS^+ radical solution containing samples and Ac the absorbance of the control solution without antioxidant. The percentages of ABTS^+ radical reduced were plotted against compound concentration. Trolox was used as a reference antioxidant. All the assays were carried out three times by quadruplicate for each compound.

[4] = FRAP (Ferric Reducing Antioxidant Power) assay; assay type: biochemical; conditions: for FRAP-TEAC100: Trolox Equivalent Antioxidant Capacity vs 100 µM solution of the substance, from FRAP assay; for FRAP Assay (%) at 100 µM / FRAP Assay (%) at 200 µM: 30 min, 593 nm
Experimental: The assay was carried out according to the method of Benzie et al. with slight modifications, in a 96-well microplate. FRAP reagent was prepared by mixing 10 mL of 300 mM acetate buffer with 1 mL of 10 mM 2,4,6-tripyridyl-S-triazine (TPTZ) in HCl 40 mM and 1mL of FeCl3·6H2O 20 mM. Firstly, 190 µL of the FRAP reagent were added to all wells of the 96-well plate, followed by the addition to the well of 10 µL of the test compounds dissolved in Ethanol to reach the final concentrations assayed (0, 5, 10, 20, 50, 100, 150, 200 µM). After 30 min incubation in the dark, the absorbance was read at 593 nm. Trolox was used as assay control. Three different assays were carried out by quadruplicate for each compound.

[5] = Iron chelation capacity (Fe^+2-ferrozine complex); assay type: biochemical; conditions: all experiments, both 50 and 200 µM
Experimental: To decrease the level of free Fe^2+ that can reduce H2O2 to the ^•OH radical and produce other ROS, it is worth to evaluate the iron chelation capacity of new potential AOX compounds as potential new therapeutic agents against neurodegenerative diseases. […] In this assay ferrozine form complexes with Fe^+2 in a quantitative manner, and in the presence of chelating compounds this complex is disrupted.
The iron chelation capacity was determined according to the method of Dinis et al., using ferrous chloride instead of ferrous sulfate. In this method, ferrozine can form complexes with a ferrous ion in a quantitative way yielding a red color with maximum absorbance at 562 nm. In the presence of other iron chelators, a decoloration is observed due to the competition with ferrozine for the metal. The assay was carried out in a 96 well plate. Serial dilutions of test compound (0, 5, 10, 25, 50, 100, 150, 200 µM) were dispensed (180 µL) into each well and then 10 µL of FeCl2 1 mM were added (final FeCl2 concentration, […]). After shaking the plate for 1 min, 10 µL of Ferrozine 2 mM were added. The mixture was shaken thoroughly and left to stand for 20 min at room temperature. The absorbance was measured at 562 nm with a Varioskan microplate reader. […] The compound iron chelation activity was calculated as the percentage of inhibition of the Fe^+2-Ferrozine complex by the formula in Equation (3):%Inhibition = {(Ao − As)/Ao} × 100(3) where Ao is the absorbance of the control, and As is the absorbance in the presence of the test compound. EDTA was used as a positive control. All the experiments were performed three times by quadruplicate for each compound concentration.

Structure (SMILES)	IC50 [1] [µM]	IC50 [3] [µM]	IC50 at 24 h [2] [µM]	ABTS-TEAC100 [3]	FRAP-TEAC100 [4]	FRAP Assay (%) at 100 µM [4] [%]	FRAP Assay (%) at 200 µM [4] [%]	Inhibition of the Fe^+2-Ferrozine complex [5]
COc1cc(/C=C/C(O)=C/C(=O)C(F)(F)F)ccc1O [Compound 1b, (3Z,5E)-1,1,1-trifluoro-4-hydroxy-6-(4-hydroxy-3-methoxyphenyl)hexa-3,5-dien-2-one]	53.8 ± 2.6	34.6 ± 2.7	102 ± 5.6	0.73	0.64	36.6	61.4	
COc1cc(/C=C/C(O)=C/C(=O)c2ccccc2)ccc1F [Compound 2a, (2Z,4E)-5-(4-fluoro-3-methoxyphenyl)-3-hydroxy-1-phenylpenta-2,4-dien-1-one]		> 600	75.7 ± 5.4	0.21	0.00	0.1	0.7	
COc1cc(/C=C/C(O)=C/C(=O)C(F)(F)F)ccc1F [Compound 2b, (3Z,5E)-1,1,1-trifluoro-6-(4-fluoro-3-methoxyphenyl)-4-hydroxyhexa-3,5-dien-2-one]		> 600	88 ± 4.5	0.23	0.03	1.9	3.1	
O=C(/C=C(O)/C=C/c1ccc(O)c(F)c1)C(F)(F)F [Compound 3b, (3Z,5E)-1,1,1-trifluoro-6-(3-fluoro-4-hydroxyphenyl)-4-hydroxyhexa-3,5-dien-2-one]		113 ± 12.4	109 ± 7.6	0.67	0.34	19.7	32.6	
O=C(/C=C(O)/C=C/c1ccc(O)cc1F)C(F)(F)F [Compound 4b, (3Z,5E)-1,1,1-trifluoro-6-(2-fluoro-4-hydroxyphenyl)-4-hydroxy-hexa-3,5-dien-2-one]		216 ± 39.5	138 ± 6.5	0.52	0.09	4.8	8.5	
O=C(/C=C(O)/C=C/c1ccc(F)c(O)c1F)C(F)(F)F [Compound 5b, (3Z,5E)-6-(2,4-difluoro-3-hydroxyphenyl)-1,1,1-trifluoro-4-hydroxyhexa-3,5-dien-2-one]		518 ± 94.6	153 ± 21	0.32	0.05	3.0	4.7	
O=C(O)CN(CCN(CC(=O)O)CC(=O)O)CC(=O)O [EDTA, reference compound]								completely inhibits
Cc1c(C)c2c(c(C)c1O)CCC(C)(C(=O)O)O2 (centres unmarked) [Trolox, reference compound]	19 ± 1.8	34 ± 2.3		1	1	53.0	100.0	

Second part, led by results:

IC50 [1] [µM]	IC50 [3] [µM]	Structure (SMILES)	IC50 at 24 h [2] [µM]	ABTS-TEAC100 [3]	FRAP-TEAC100 [4]	FRAP Assay (%) at 100 µM [4] [%]	FRAP Assay (%) at 200 µM [4] [%]	Inhibition of the Fe^+2-Ferrozine complex [5]
	60.2 ± 2.2	O=C(/C=C(O)/C=C/c1ccc(O)c(F)c1)c1ccccc1 [Compound 3a, (2Z,4E)-5-(3-fluoro-4-hydroxyphenyl)-3-hydroxy-1-phenylpenta-2,4-dien-1-one]	98.1 ± 8.3	0.51	0.33	20.5	31.0	
	108 ± 7.6	O=C(/C=C(O)/C=C/c1ccc(O)cc1F)c1ccccc1 [Compound 4a, (2Z,4E)-5-(2-fluoro-4-hydroxyphenyl)-3-hydroxy-1-phenylpenta-2,4-dien-1-one]	104 ± 7.1	0.40	0.15	9.8	14.3	
	275 ± 35.3	O=C(/C=C(O)/C=C/c1ccc(F)c(O)c1F)c1ccccc1 [Compound 5a, (2Z,4E)-5-(2,4-difluoro-3-hydroxyphenyl)-3-hydroxy-1-phenylpenta-2,4-dien-1-one]	119 ± 8.5	0.23	0.05	3.4	5.3	
	67.2 ± 2.7	O=C(/C=C(O)/C=C/c1cc(F)c(O)cc1F)c1ccccc1 [Compound 6a, (2Z,4E)-5-(2,5-difluoro-4-hydroxyphenyl)-3-hydroxy-1-phenylpenta-2,4-dien-1-one]	134 ± 6.6	0.51	0.25	15.5	25.2	
